Some test systems named below: SNB-19; SR; SW-620; SF-268; OVCAR-3; RXF 393; PC-3; CAKI-1; UO-31; SF-539; MOLT-4; UACC-62; NCI-H23; SK-MEL-28; HOP-62; DU-145; SNB-75; HCC 2998; CCRF-CEM; NCI/ADR-RES.
Holding throughout (test): inhibition of tumour cell growth, NCI panel, 48 h

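1) Cells in 96-well plates. 2) Compound, 48 h, 5 concentrations. 3) Linear interpolation between surrounding doses. 4) Unreached endpoint = highest concentration. GI50 marks 50% less growth.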 Activity calls are given as the source filed them. Rule as the data show it: active = GI50 up to about 1.1 µM and inactive = higher. Non-standard residues stand in square brackets, D forms with d. Residues, ends and D or L forms follow the SMILES beside them. ξ: configuration not given here. *: point of attachment. NMeF = CN[C@@H](Cc1ccccc1)C(=O)O; NMeN = CN[C@@H](CC(N)=O)C(=O)O; NMeV = CN[C@H](C(=O)O)C(C)C; ξNMeV = CNC(C(=O)O)C(C)C; Boc = CC(C)(C)OC(=O)*; ξNMeA = CNC(C)C(=O)O; ξV = CC(C)C(N)C(=O)O A value given as a limit tells only on which side of the number the result lay.

Consider `O=C(NNC(=O)c1ccccc1O)c1cccc(Br)c1`, for which the GI50 was 73.6 µM (inactive) in the assay with SNB-19; 12.9 µM (inactive) with SR; 35 µM (inactive) in the assay on SW-620; 24.9 µM (inactive) in the assay on SF-268; 8.47 µM (inactive) in the assay on OVCAR-3; > 100 µM (inactive) in the assay on RXF 393. Also, the GI50 was 44.8 µM (inactive) in the assay with PC-3; 24.3 µM (inactive) in the assay on CAKI-1; 10.7 µM (inactive) with UO-31; > 70 µM (inactive) in the assay with SF-539; 9.23 µM (inactive) with MOLT-4; 47.3 µM (inactive) with UACC-62. Further, the GI50 with NCI-H23 was > 100 µM (inactive); in the assay on SK-MEL-28 it was > 91.8 µM (inactive); in the assay with HOP-62, 56.8 µM (inactive); in the assay with DU-145 it was 30.2 µM (inactive); in the assay on SNB-75, > 71.8 µM (inactive); in the assay on HCC 2998, 17.7 µM (inactive). In addition, the GI50 in the assay with CCRF-CEM was 0.512 µM (active); in the assay on NCI/ADR-RES, 21.1 µM (inactive).
Regarding `COC(=O)C(C)N(C)C(=O)[C@H](CC(N)=O)N(C)C(=O)[C@@H]1CCCN1C(=O)[C@H](C(C)C)N(C)C(=O)C(C(C)C)N(C)C(=O)[C@H](Cc1ccccc1)N(C)C(=O)C(NC(=O)OC(C)(C)C)C(C)C` (stereo not given in full) (Boc-[ξV][NMeF][ξNMeV][NMeV]P[NMeN][ξNMeA]-OMe), the GI50 with SNB-19 is 19.7 µM (inactive); in the assay on SR, 5.15 µM (inactive); with SW-620, 28.1 µM (inactive); in the assay on SF-268, 13.9 µM (inactive); with OVCAR-3 it was 12.5 µM (inactive); in the assay on RXF 393 it was 12 µM (inactive). In addition, the GI50 was 16.1 µM (inactive) in the assay on PC-3; > 50 µM (inactive) in the assay on CAKI-1; 37.8 µM (inactive) with UO-31; 28 µM (inactive) in the assay on SF-539; 8.95 µM (inactive) with MOLT-4; 10.2 µM (inactive) in the assay on UACC-62. Further, the GI50 was 17.6 µM (inactive) in the assay on NCI-H23; 18.2 µM (inactive) in the assay with SK-MEL-28; 11.5 µM (inactive) in the assay on HOP-62; 28.8 µM (inactive) with DU-145; 6.17 µM (inactive) in the assay on SNB-75; 18.8 µM (inactive) in the assay with HCC 2998. For the same compound, the results for the GI50 in the assay on CCRF-CEM and in the assay on NCI/ADR-RES were 24 µM (inactive) and > 50 µM (inactive), respectively.
In the case of `O=C(O)C1CC(O)CN1` (stereo not given), the GI50 in the assay with SNB-19, in the assay on SR, with SW-620, in the assay on SF-268, in the assay with OVCAR-3 and with RXF 393 was > 100 µM (inactive) in each case. Besides, the GI50 in the assay with PC-3, in the assay on CAKI-1, with UO-31, in the assay on SF-539, in the assay with MOLT-4 and with UACC-62 was > 100 µM (inactive) in each case. In addition, the GI50 in the assay with NCI-H23, in the assay with SK-MEL-28, in the assay on HOP-62, with DU-145, with SNB-75 and in the assay with HCC 2998 was > 100 µM (inactive) throughout. Also, the GI50 with CCRF-CEM and in the assay with NCI/ADR-RES was > 100 µM (inactive) in each case.
Regarding `CC(=O)OC12c3ccccc3C(c3ccccc31)C1C(=O)N(c3ccccc3O)C(=O)C12` (stereo not given), the GI50 was 84.9 µM (inactive) in the assay on SNB-19; > 100 µM (inactive) in the assay on SR; > 100 µM (inactive) in the assay with SW-620; 80.5 µM (inactive) in the assay on SF-268; 90.8 µM (inactive) in the assay on OVCAR-3; > 100 µM (inactive) in the assay with RXF 393. For the same compound, the GI50 in the assay with PC-3 was > 100 µM (inactive); with CAKI-1 it was > 100 µM (inactive); in the assay with UO-31 it was 50.4 µM (inactive); with SF-539, > 100 µM (inactive); in the assay with MOLT-4 it was > 100 µM (inactive); in the assay with UACC-62 it was > 10 µM (inactive). Moreover, the GI50 in the assay on NCI-H23 was 41.6 µM (inactive); in the assay on SK-MEL-28 it was > 100 µM (inactive); with HOP-62 it was 96.4 µM (inactive); in the assay with DU-145, > 100 µM (inactive); in the assay on SNB-75, 46.3 µM (inactive); in the assay with HCC 2998, > 100 µM (inactive). In addition, the results for the GI50 in the assay on CCRF-CEM and in the assay with NCI/ADR-RES were 57.3 µM (inactive) and > 100 µM (inactive), respectively.
